Measurements as given in patent US7947669B2, “Agent for improving insulin resistance” (Morinaga Milk Industry Co., Ltd., priority 2005, dated 2011).

Tests used:
Format in all cases: in vivo
[1] = test system: AKR mice in which insulin resistance is induced by feeding with a high-fat diet; experiment: Level of free fatty acid in serum of high-fat diet AKR mice; conditions: for Test Sample/Negative sample (free fatty acid): serum free fatty acid relative to negative sample, 60th day, 25 μg/kg oral once a day; for Free fatty acid: serum, fasting, 60th day of oral administration 25 μg/kg of body weight once a day, AKR mice on high-fat diet
Procedure: Each of 9,19-cyclolanostan-3-ol and 24-methylene-9,19-cyclolanostan-3-ol produced in Preparation Example 3 was dissolved in DMSO, and each concentration was adjusted to 1 μg/ml with distilled water to thereby prepare Test Samples 1 and 2.
These mice were divided into groups, each consisting of 8 mice.

MCP-1 = experiment: Production quantity of MCP-1 of adipose tissues from treated high-fat diet AKR mice (ELISA); conditions: 60th day, 25 μg/kg oral once a day; for inhibitory effect on the production of MCP-1 compared with negative sample: adipose tissue, Tukey-Kramer's test; for MCP-1: culture supernatant of epididymal fat tissue after 1 hour culture
Procedure: (§1) This example was performed in order to evaluate an effect of the agent for improving insulin resistance of the present invention on production quantities of TNF-α and MCP-1 in each cell of adipose tissue by using AKR mice in which insulin resistance is induced by feeding with a high-fat diet.
(§2) In Example 2, the same Test Samples 1, 2 and the negative sample as those prepared in Example 1 were used.
(§3) These mice were divided into groups, each consisting of 8 mice. […] After 1 hour of the culture, culture supernatants were collected, and concentrations of TNF-α and MCP-1 in the culture supernatants were measured by ELISA method (Biosource).

[2] = test system: AKR mice in which insulin resistance is induced by feeding with a high-fat diet; experiment: Insulin tolerance test in high-fat diet AKR mice; conditions: 45th day, 25 μg/kg oral once a day, 4 h fast, human insulin 0.75 U/Kg i.p., up to 60 minutes (FIG. 1)
Procedure: This example was performed in order to evaluate an enhancing effect of the agent for improving insulin resistance of the present invention on insulin sensitivity by performing an insulin tolerance test using AKR mice in which insulin resistance is induced by feeding with a high-fat diet.
In Example 3, the same Test Samples 1, 2 and the negative sample as those prepared in Examples 1 and 2 were used.
These mice were divided into groups, each consisting of 8 mice. […] In the present example, the insulin tolerance test was performed in such a manner that: the mice were fasted for 4 hours, and were then intraperitoneally administered with 0.75 U/Kg of body weight of a human insulin (Eli Lily and Company); and changes with time in blood glucose level were measured from the initiation of the administration of the insulin to after 60 minutes later.

TNF-α = experiment: Production quantity of TNF-α of adipose tissues from treated high-fat diet AKR mice (ELISA); conditions: 60th day, 25 μg/kg oral once a day; for inhibitory effect on the production of TNF-α compared with negative sample: adipose tissue, Tukey-Kramer's test; for TNF-α: culture supernatant of epididymal fat tissue after 1 hour culture
Procedure: as §1, §2, §3

| Structure (SMILES) | Test Sample/Negative sample (free fatty acid) [1] [%] | Free fatty acid [1] [mEq/l] | inhibitory effect on the production of MCP-1 compared with negative sample (MCP-1) | MCP-1 (MCP-1) [pg/mL] | change in blood glucose level after insulin administration [2] | inhibitory effect on the production of TNF-α compared with negative sample (TNF-α) | TNF-α (TNF-α) [pg/mL] |
| --- | --- | --- | --- | --- | --- | --- | --- |
| C=C(CCC(C)C1CCC2(C)C3CCC4C(C)(C)C(O)CCC45CC35CCC12C)C(C)C (centres unmarked) [Test Sample 2, 24-methylene-9,19-cyclolanostan-3-ol] | 81.1 | 1.20 ± 0.25 | significant inhibitory effects | 99.32 ± 7.80 | rapid decrease in blood glucose levels | significant inhibitory effects | 33.59 ± 0.59 |
| CC(C)CCCC(C)C1CCC2(C)C3CCC4C(C)(C)C(O)CCC45CC35CCC12C (centres unmarked) [Test Sample 1, 9,19-cyclolanostan-3-ol] | 81.1 | 1.20 ± 0.38 | significant inhibitory effects | 89.83 ± 6.16 | rapid decrease in blood glucose levels | significant inhibitory effects | 29.80 ± 2.58 |
